This note sets out measurements from patent US20240398736A1, “Eyedrops for Treating Scleral Thinning and Screening Method for Therapeutic Agent of Scleral Thinning” (Tsubota Laboratory, Inc., priority 2020, published 2024).

SMILES strings stand for the structures. “Also recorded” adds a separate entry of the source.

The test system of series [1] is myopia-induced mouse. Briefly: Eyedrop administration of UPR inhibitors during myopia induction in mouse: axial elongation and refraction (Test Example 2). The series is classed as in vivo. To be noted: eyedrop once a day for 10 days during myopia induction; 100 μM each (STF 60 μM); -30 D lens eye. The procedure: Specifically, a myopia-induced mouse is produced as follows.
During the myopia induction, 60 μM STF080312 (STF), 100 μM 4μ8C (4μ8C), 100 μM GSK2656157 (GSK), 100 μM GSK2606414 (GSK2606414), 100 μM Nelfinavir Mesylate hydrate (NFV), or 100μM Ceapin-A7 (Ceapin) was eye-dropped to both eyes once a day every day in the evening for 10 days.
It is said that increase of expression of URP gene pathway is a cause of pathologic axial elongation and scleral thinning in high myopia (Patent Literature 1). Therefore, in this Test Example 2, it was evaluated, in the sclera of a myopia-induced mouse in which scleral thinning had been caused, how the phenotype of axial elongation was affected by a known URP gene inhibitor. It is noted that GSK2656157 (GSK) and GSK2606414 were used as the PERK inhibitor, Nelfinavir Mesylate hydrate (NFV) and Ceapin-A7 were used as the ATF6 inhibitor, and STF080312 (STF) and 4μ8C were used as the IRE1 inhibitor (FIG. 4).
In accordance with the test method described above, the axial elongation caused in using each of the various gene inhibitors in a myopia-induced mouse was evaluated (FIG. 4).
FIGS. 5a and 5b illustrate axial elongation (a) and refraction change (b) obtained after eyedrop administration of 60 μM STF, 100 μM GSK, or 100 μM NFV once a day for 10 days during the myopia induction period of the mouse. Besides, FIGS. 5c and 5d illustrate axial elongation (a) and refraction change (b) obtained after similarly eyedrop administration of a combination of these inhibitors (STF+GSK:S+G, GSK+NFV:G+N, NFV+STF:N+S, or STF+GSK+NTF:S+G+N). Besides, FIG. 6 illustrates axial elongation (a) and refraction change (b) obtained after similarly eyedrop administration of 100 μM GSK2606414, Ceapin-A7, or 4μ8C.

In series [2] the test system is myopia-induced mouse. Briefly: Intraperitoneal injection of 4-PBA or TUDCA during myopia induction in mouse: axial elongation and refraction (Test Example 3). As to the method: Specifically, a myopia-induced mouse is produced as follows. It is noted that myopia induction, and measurement of an axial length and refraction were performed by methods similar to those described in Non Patent Literatures 6 and 7. First, a male C57BL6J mouse was put in a standard transparent cage under a 12/12 h light/dark cycle in a temperature controlled clean room. The animal was allowed to free access to standard feed and autoclaved tap water. A 3-week-old mouse immediately after weaning was anesthetized with a mixed anesthetic of three anesthetics, that is, Domitor (Nippon Zenyaku Kogyo Co., Ltd.), Butorphanol (Meiji Seika Pharma Co., Ltd.), and Midazolam (Sandoz K. K.), and the skull was exposed with scissors. As illustrated in FIG. 1(b), a post was provided to stand on the skull, and fixed with dental cements (Super-Bond, Sun Medical Company, Ltd.). The post was provided with a screw thread so that an adjustor described below could be fixed thereon with a nut.
For inducing myopia, a minus lens having a power of −30 diopters (D) (Rainbow Contact, RAINBOW OPTICAL LABORATORY CO., LTD.) was worn on the right eye (myopia-induced eye), and a lens having a power of 0 D or only a frame was worn as a control on the left eye (control eye). […] The protector used here was attached to be integral with the frame portion, but the protector needs not be integral with the lens as long as the lens is not damaged by the behavior of the mouse.
Sodium phenylbutyrate (Cayman Chemical, MI, USA) and tauroursodeoxycholic acid (Sigma Aldrich, Tokyo, Japan) were dissolved in PBS. STF080310 (Selleck Biotech, Tokyo, Japan) or 4μ8C (Selleck Biotech) of an IRE1 inhibitor, GSK2656157 (Selleck Biotech) or GSK2606414 (Selleck Biotech) of a PERK inhibitor, and Nelfinavir Mesylate hydrate (Tokyo Chemical Industry Co., Ltd.) or Ceapin-A7 (Sigma Aldrich) of an ATF6 inhibitor were dissolved in DMSO, and the resultant was diluted to 1:1000 with PBS to be used in an eyedrop test.
A solution of sodium phenylbutyrate in PBS (4-PBA; 200 mg/kg) or tauroursodeoxycholic acid (TUDCA; 100 mg/kg) was intraperitoneally injected (i.p.) every day during the myopia induction period.

The mark [3] stands for this setting: TUDCA 100 mg/kg intraperitoneal injection during myopia induction.

Take `Cc1cc(=O)oc2c(C=O)c(O)ccc12` [4μ8C]: in the series on myopia-induced mouse [1], the “axial elongation of myopia-induced eye” value is “neither axial elongation nor myopic refraction was inhibited” and the “myopic refraction of myopia-induced eye” value was “neither axial elongation nor myopic refraction was inhibited”.

`O=C(Nc1cnn(Cc2ccc(C(F)(F)F)cc2C(F)(F)F)c1)c1cc(-c2ccco2)on1` [Ceapin-A7]: in the series with myopia-induced mouse [1], the “axial elongation of myopia-induced eye” value is “neither axial elongation nor myopic refraction was inhibited” and the “myopic refraction of myopia-induced eye” value is given as “neither axial elongation nor myopic refraction was inhibited”.

As for `Cn1cc(-c2ccc3c(c2)CCN3C(=O)Cc2cccc(C(F)(F)F)c2)c2c(N)ncnc21` [GSK2606414], in the series with myopia-induced mouse [1], the “axial elongation of myopia-induced eye” value was “neither axial elongation nor myopic refraction was inhibited” and the “myopic refraction of myopia-induced eye” value is on record as “neither axial elongation nor myopic refraction was inhibited”.

Take `C[C@H](CCC(=O)NCCS(=O)(=O)O)[C@H]1CC[C@H]2[C@@H]3[C@@H](O)C[C@@H]4C[C@H](O)CC[C@]4(C)[C@H]3CC[C@]12C` [TUDCA, tauroursodeoxycholic acid]: in the series with myopia-induced mouse [2] (setting [3]), the “axial elongation (pathologic, myopia-induced eye)” value is recorded as “pathologic axial elongation alone was inhibited; also recorded: the axial elongation is inhibited” and the myopic refraction entry was “the myopic refraction is inhibited”. For the same molecule, the physiological axial elongation result in the series on myopia-induced mouse [2] (mouse, in vivo) is reported as “physiological axial elongation was not inhibited”.
